SMILES	melting point
CC(=O)Nc1ccccc1Oc1ccc(C#N)c(C#N)c1 [Compound 94, N-[2-(3,4-Dicyanophenoxy)phenyl]acetamide]	152.2 to 153.7 °C
COC(=O)c1ccc(C(=O)c2ccc(NC(=O)c3cccc([N+](=O)[O-])c3)cc2)cc1C(=O)OC [Compound 114, 4-[4-(3-Nitrobenzoylamino)benzoyl]phthalic acid dimethyl ester]	144 to 146 °C
COC(=O)c1ccc(C(=O)c2ccccc2NC(=O)c2cccc([N+](=O)[O-])c2)cc1C(=O)OC [Compound 115, 4-[2-(3-Nitrobenzoylamino)benzoyl]phthalic acid dimethyl ester]	133 to 137 °C
O=C(O)c1cc(Oc2ccccc2NC(=O)c2cccc([N+](=O)[O-])c2)cc(C(=O)O)c1 [Compound 121, 5-[2-(3-Nitrobenzoylamino)phenoxy]isophthalic acid]	184 to 190 °C
O=C(O)c1ccc(Oc2ccccc2NC(=O)c2cccc([N+](=O)[O-])c2)c(C(=O)O)c1 [Compound 122, 4-[2-(3-Nitrobenzoylamino)phenoxy]isophthalic acid]	255 to 257 °C
O=C(Nc1ccc(Oc2ccc(C(=O)O)c(C(=O)O)c2)cc1)c1cccc([N+](=O)[O-])c1 [Compound 123, 4-[4-(3-Nitrobenzoylamino)phenoxy]phthalic acid]	225 to 227 °C
O=C(Nc1ccccc1Sc1ccc(C(=O)O)c(C(=O)O)c1)c1cccc([N+](=O)[O-])c1 [Compound 125, 4-[2-(3-Nitrobenzoylamino)phenylsulphenyl]phthalic acid]	172.8 to 173.9 °C
O=C(O)c1cccc(NC(=O)c2ccccc2Oc2ccc(C(=O)O)c(C(=O)O)c2)c1 [Compound 134, 4-[2-(3-Carboxyphenylcarbamoyl)phenoxy]phthalic acid]	202 to 208 °C
O=C(Cc1ccc(O)c([N+](=O)[O-])c1)Nc1ccccc1Oc1ccc(C(=O)O)c(C(=O)O)c1 [Compound 174, 4-{2-[2-(4-Hydroxy-3-nitrophenyl)-acetylamino]phenoxy}phthalic acid]	187.8 to 189.9 °C
O=C(Cc1cc([N+](=O)[O-])ccc1Cl)Nc1ccccc1Oc1ccc(C(=O)O)c(C(=O)O)c1 [Compound 175, 4-{2-[2-(2-Chloro-5-nitrophenyl)acetylamino]phenoxy}phthalic acid]	176 to 178.2 °C
N#Cc1ccc(Oc2ccccc2NC(=O)c2cccc([N+](=O)[O-])c2)cc1C#N [Compound 176, N-[2-(3,4-Dicyanophenoxy)phenyl]-3-nitrobenzamide]	176.5 to 178.1 °C
